Several values for one entry are separate records, joined by “and”; a condition that tells them apart may be missing. Identical values can stand only once.
Settings: Liquid, Transpiration method

COC(=O)C(C)=O [methyl 2-oxopropanoate]
Settings	vapor or sublimation pressure
279.4 K	0.177 kPa and 0.1749 kPa
280.9 K	0.1942 kPa
282.4 K	0.2279 kPa
283.8 K	0.2536 kPa
286.2 K	0.2982 kPa and 0.293 kPa
287 K	0.3042 kPa
289.2 K	0.3569 kPa
291 K	0.426 kPa
294.9 K	0.527 kPa
298.9 K	0.706 kPa
302.9 K	0.919 kPa
307.8 K	1.227 kPa

CC(=O)C(=O)O [2-oxopropanoic acid]
Settings	vapor or sublimation pressure
308.2 K	0.2899 kPa
313.3 K	0.3753 kPa and 0.3771 kPa
315.9 K	0.434 kPa
316.8 K	0.45 kPa
318.3 K	0.509 kPa
320.9 K	0.599 kPa and 0.597 kPa
325.8 K	0.798 kPa
330.8 K	1.092 kPa
333.2 K	1.274 kPa
336.4 K	1.519 kPa
